Experimental data from the NIST ThermoML archive (doi:10.1016/j.jct.2015.02.011).
± gives the expanded uncertainty stated by the source.

Assay: refractive index (Na D-line) (dimensionless); xn = mol fraction of the nth substance listed
Settings: 100.7 kPa, Liquid, Standard Abbe refractometry

CCCCn1cc[n+](C)c1.F[P-](F)(F)(F)(F)F [1-butyl-3-methylimidazolium hexafluorophosphate] + C1CCOC1
refractive index
Settings	x1 = 0.0871	x1 = 0.1801	x1 = 0.2893	x1 = 0.3939	x1 = 0.4994	x1 = 0.5709	x1 = 0.7163	x1 = 0.8069	x1 = 0.9012	x1 = 1
293.15 K	1.41126 ± 0.0016	1.41369 ± 0.0016	1.41462 ± 0.0016	1.41441 ± 0.0016	1.41373 ± 0.0016	1.41332 ± 0.0016	1.41236 ± 0.0017	1.41205 ± 0.0017	1.41131 ± 0.0017	1.41068 ± 0.0017
298.15 K	1.40906 ± 0.0016	1.41157 ± 0.0016	1.41279 ± 0.0016	1.41273 ± 0.0016	1.41208 ± 0.0016	1.4117 ± 0.0016	1.41089 ± 0.0017	1.41059 ± 0.0017	1.41014 ± 0.0017	1.40943 ± 0.0017
303.15 K	1.40701 ± 0.0016	1.40957 ± 0.0016	1.41105 ± 0.0016	1.41113 ± 0.0016	1.41065 ± 0.0016	1.41025 ± 0.0016	1.40964 ± 0.0017	1.40935 ± 0.0017	1.40895 ± 0.0017	1.40818 ± 0.0017
308.15 K	1.40475 ± 0.0016	1.40747 ± 0.0016	1.40915 ± 0.0016	1.40938 ± 0.0016	1.4092 ± 0.0016	1.40877 ± 0.0016	1.40818 ± 0.0017	1.40793 ± 0.0017	1.40778 ± 0.0017	1.40693 ± 0.0017
313.15 K	1.40262 ± 0.0016	1.40554 ± 0.0016	1.40754 ± 0.0016	1.40784 ± 0.0016	1.40779 ± 0.0016	1.40748 ± 0.0016	1.40693 ± 0.0017	1.40681 ± 0.0017	1.40666 ± 0.0017	1.40567 ± 0.0017
318.15 K	1.40012 ± 0.0016	1.40345 ± 0.0016	1.40558 ± 0.0016	1.40611 ± 0.0016	1.40619 ± 0.0016	1.40595 ± 0.0016	1.40552 ± 0.0017	1.40541 ± 0.0017	1.40525 ± 0.0017	1.40443 ± 0.0017
323.15 K	1.39781 ± 0.0016	1.40139 ± 0.0016	1.40377 ± 0.0016	1.40455 ± 0.0016	1.40451 ± 0.0016	1.40452 ± 0.0016	1.40428 ± 0.0017	1.40425 ± 0.0017	1.40393 ± 0.0017	1.40312 ± 0.0017

CCCCCCn1cc[n+](C)c1.F[P-](F)(F)(F)(F)F [1-hexyl-3-methylimidazolium hexafluorophosphate] + C1CCOC1
refractive index
Settings	x1 = 0.1036	x1 = 0.2002	x1 = 0.2868	x1 = 0.4134	x1 = 0.5222	x1 = 0.6239	x1 = 0.6951	x1 = 0.7978	x1 = 0.8953	x1 = 1
293.15 K	1.416 ± 0.0016	1.41971 ± 0.0016	1.42081 ± 0.0016	1.42058 ± 0.0016	1.41962 ± 0.0016	1.41895 ± 0.0016	1.41874 ± 0.0017	1.41868 ± 0.0017	1.41858 ± 0.0017	1.41958 ± 0.0017
298.15 K	1.41392 ± 0.0016	1.41772 ± 0.0016	1.41878 ± 0.0016	1.41884 ± 0.0016	1.41828 ± 0.0016	1.41755 ± 0.0016	1.41759 ± 0.0017	1.41752 ± 0.0017	1.41756 ± 0.0017	1.41832 ± 0.0017
303.15 K	1.41184 ± 0.0016	1.41573 ± 0.0016	1.41707 ± 0.0016	1.4171 ± 0.0016	1.41694 ± 0.0016	1.41615 ± 0.0016	1.41644 ± 0.0017	1.41636 ± 0.0017	1.41654 ± 0.0017	1.41692 ± 0.0017
308.15 K	1.40966 ± 0.0016	1.41374 ± 0.0016	1.41536 ± 0.0016	1.41556 ± 0.0016	1.41536 ± 0.0016	1.41475 ± 0.0016	1.41509 ± 0.0017	1.41512 ± 0.0017	1.41552 ± 0.0017	1.41564 ± 0.0017
313.15 K	1.40748 ± 0.0016	1.41175 ± 0.0016	1.41365 ± 0.0016	1.41402 ± 0.0016	1.41378 ± 0.0016	1.41335 ± 0.0016	1.41374 ± 0.0017	1.41388 ± 0.0017	1.4145 ± 0.0017	1.41422 ± 0.0017
318.15 K	1.4053 ± 0.0016	1.40976 ± 0.0016	1.41194 ± 0.0016	1.41248 ± 0.0016	1.4122 ± 0.0016	1.41195 ± 0.0016	1.41239 ± 0.0017	1.41264 ± 0.0017	1.41348 ± 0.0017	1.41306 ± 0.0017
323.15 K	1.40312 ± 0.0016	1.40777 ± 0.0016	1.41023 ± 0.0016	1.41094 ± 0.0016	1.41062 ± 0.0016	1.41055 ± 0.0016	1.41104 ± 0.0017	1.4114 ± 0.0017	1.41246 ± 0.0017	1.41175 ± 0.0017

CCCCCCCC[n+]1ccn(C)c1.F[P-](F)(F)(F)(F)F [1-octyl-3-methylimidazolium hexafluorophosphate] + C1CCOC1
refractive index
Settings	x1 = 0.0767	x1 = 0.1791	x1 = 0.2783	x1 = 0.3996	x1 = 0.5198	x1 = 0.612	x1 = 0.6957	x1 = 0.7754	x1 = 0.8991	x1 = 1
293.15 K	1.41505 ± 0.0016	1.4205 ± 0.0016	1.42326 ± 0.0016	1.42412 ± 0.0016	1.42414 ± 0.0016	1.42411 ± 0.0016	1.42421 ± 0.0017	1.42432 ± 0.0017	1.42436 ± 0.0017	1.42441 ± 0.0017
298.15 K	1.41278 ± 0.0016	1.41848 ± 0.0016	1.42126 ± 0.0016	1.42242 ± 0.0016	1.42258 ± 0.0016	1.42272 ± 0.0016	1.42284 ± 0.0017	1.42306 ± 0.0017	1.42329 ± 0.0017	1.42312 ± 0.0017
303.15 K	1.41061 ± 0.0016	1.41646 ± 0.0016	1.41956 ± 0.0016	1.42076 ± 0.0016	1.42102 ± 0.0016	1.42123 ± 0.0016	1.42161 ± 0.0017	1.42189 ± 0.0017	1.42202 ± 0.0017	1.42171 ± 0.0017
308.15 K	1.40824 ± 0.0016	1.41452 ± 0.0016	1.41786 ± 0.0016	1.4191 ± 0.0016	1.41946 ± 0.0016	1.41974 ± 0.0016	1.42018 ± 0.0017	1.42042 ± 0.0017	1.42085 ± 0.0017	1.42029 ± 0.0017
313.15 K	1.40587 ± 0.0016	1.41284 ± 0.0016	1.41616 ± 0.0016	1.41744 ± 0.0016	1.4179 ± 0.0016	1.41825 ± 0.0016	1.41865 ± 0.0017	1.41915 ± 0.0017	1.41958 ± 0.0017	1.41888 ± 0.0017
318.15 K	1.4035 ± 0.0016	1.41116 ± 0.0016	1.41446 ± 0.0016	1.41578 ± 0.0016	1.41634 ± 0.0016	1.41676 ± 0.0016	1.41712 ± 0.0017	1.41788 ± 0.0017	1.41831 ± 0.0017	1.4175 ± 0.0017
323.15 K	1.40113 ± 0.0016	1.40948 ± 0.0016	1.41276 ± 0.0016	1.41412 ± 0.0016	1.41478 ± 0.0016	1.41527 ± 0.0016	1.41559 ± 0.0017	1.41661 ± 0.0017	1.41704 ± 0.0017	1.41601 ± 0.0017
